Test results taken from ChEMBL document CHEMBL3112495, “Diphenylpyridylethanamine (DPPE)-based aminoheterocycles as cholesteryl ester transfer protein inhibitors” (Bioorg Med Chem Lett, 2014).
Each block holds one molecule with its values, some of them ahead of it.

Columns and labels:
[1] = Metabolic stability of the compound in rat liver microsomes assessed as compound remaining after 10 mins; type: ADME; conditions: read-out: Stability
[2] = Metabolic stability of the compound in mouse liver microsomes assessed as compound remaining after 10 mins; type: ADME, Microsome; conditions: read-out: Stability
[3] = Metabolic stability of the compound in human liver microsomes assessed as compound remaining after 10 mins; type: ADME; conditions: read-out: Stability
[4] = target: T1, Cytochrome P450 3A4 (Homo sapiens, UniProt P08684); assay: Inhibition of CYP3A4 (unknown origin) using 7-benzyloxy-4-trifluoromethylcoumarin as substrate; type: ADME
[5] = target: T1, Cytochrome P450 3A4; assay: Inhibition of CYP3A4 (unknown origin) using benzyloxyresorufin as substrate; type: ADME
[6] = target: Cytochrome P450 2D6 (Homo sapiens, UniProt P10635); assay: Inhibition of CYP2D6 (unknown origin); type: ADME
[7] = target: Cytochrome P450 2C19 (Homo sapiens, UniProt P33261); assay: Inhibition of CYP2C19 (unknown origin); type: ADME
[8] = target: Cytochrome P450 2C9 (Homo sapiens, UniProt P11712); assay: Inhibition of CYP2C9 (unknown origin); type: ADME
[9] = target: T2, Cytochrome P450 1A2 (Homo sapiens, UniProt P05177); assay: Inhibition of CYP1A2 (unknown origin); type: ADME
T2 sequence (P05177 whole entry): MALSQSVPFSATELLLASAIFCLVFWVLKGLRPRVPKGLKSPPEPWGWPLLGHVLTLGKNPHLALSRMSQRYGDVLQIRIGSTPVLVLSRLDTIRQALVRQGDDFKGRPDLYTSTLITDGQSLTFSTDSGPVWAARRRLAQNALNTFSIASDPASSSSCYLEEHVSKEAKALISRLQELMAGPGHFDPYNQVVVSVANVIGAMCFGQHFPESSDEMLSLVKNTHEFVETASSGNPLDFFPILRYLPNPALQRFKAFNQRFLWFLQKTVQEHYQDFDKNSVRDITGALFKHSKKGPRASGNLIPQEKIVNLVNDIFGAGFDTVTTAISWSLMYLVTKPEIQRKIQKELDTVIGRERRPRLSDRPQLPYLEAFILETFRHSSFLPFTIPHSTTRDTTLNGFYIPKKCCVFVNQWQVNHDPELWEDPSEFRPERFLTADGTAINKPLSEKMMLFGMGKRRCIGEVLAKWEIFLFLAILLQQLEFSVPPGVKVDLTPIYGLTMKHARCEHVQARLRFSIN

[10] = target: T3, Nuclear receptor subfamily 1 group I member 2 (Homo sapiens, UniProt O75469); assay: Activation of PXR (unknown origin)
T3 sequence (O75469 whole entry): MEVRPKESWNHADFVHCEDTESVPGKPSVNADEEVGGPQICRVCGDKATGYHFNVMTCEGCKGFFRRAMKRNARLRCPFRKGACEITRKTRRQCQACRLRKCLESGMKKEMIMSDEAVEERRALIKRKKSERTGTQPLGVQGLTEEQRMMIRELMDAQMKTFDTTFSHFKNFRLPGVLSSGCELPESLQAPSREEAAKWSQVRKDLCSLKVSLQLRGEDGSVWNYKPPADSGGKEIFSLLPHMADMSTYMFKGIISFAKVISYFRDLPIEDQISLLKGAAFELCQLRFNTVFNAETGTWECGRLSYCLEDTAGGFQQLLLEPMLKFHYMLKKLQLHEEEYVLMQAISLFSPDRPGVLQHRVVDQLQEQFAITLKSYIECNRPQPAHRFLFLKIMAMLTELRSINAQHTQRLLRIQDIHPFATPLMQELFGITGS

[11] = target: T4, PXR (Homo sapiens, UniProt O75469); assay: Activation of PXR (unknown origin) relative to rifampicin
T4 sequence (O75469 whole entry): T3 sequence (O75469 whole entry)

[12] = target: T5, Cholesteryl ester transfer protein (Homo sapiens, UniProt P11597); assay: Inhibition of human recombinant CETP using [3H]-CE/HDL by scintillation proximity assay
T5 sequence (P11597 whole entry): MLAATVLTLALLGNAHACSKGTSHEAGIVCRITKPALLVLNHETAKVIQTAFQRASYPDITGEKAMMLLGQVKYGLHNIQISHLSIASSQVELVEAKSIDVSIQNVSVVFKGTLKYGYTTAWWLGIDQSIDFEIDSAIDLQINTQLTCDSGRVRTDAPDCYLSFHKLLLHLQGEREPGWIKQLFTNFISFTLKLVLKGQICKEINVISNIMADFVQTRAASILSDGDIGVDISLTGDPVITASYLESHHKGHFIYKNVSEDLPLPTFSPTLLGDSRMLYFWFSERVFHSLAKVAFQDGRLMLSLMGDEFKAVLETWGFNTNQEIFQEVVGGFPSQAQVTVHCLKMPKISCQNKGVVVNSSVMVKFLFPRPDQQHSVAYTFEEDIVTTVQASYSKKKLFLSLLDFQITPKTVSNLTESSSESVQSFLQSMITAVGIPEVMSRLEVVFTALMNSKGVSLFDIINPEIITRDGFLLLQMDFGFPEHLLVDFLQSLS

[13] = target: T5, Cholesteryl ester transfer protein; assay: Inhibition of CETP in human whole plasma using [3H]-CE/HDL after 10 mins

Chain of Cytochrome P450 2D6 (P10635 whole entry): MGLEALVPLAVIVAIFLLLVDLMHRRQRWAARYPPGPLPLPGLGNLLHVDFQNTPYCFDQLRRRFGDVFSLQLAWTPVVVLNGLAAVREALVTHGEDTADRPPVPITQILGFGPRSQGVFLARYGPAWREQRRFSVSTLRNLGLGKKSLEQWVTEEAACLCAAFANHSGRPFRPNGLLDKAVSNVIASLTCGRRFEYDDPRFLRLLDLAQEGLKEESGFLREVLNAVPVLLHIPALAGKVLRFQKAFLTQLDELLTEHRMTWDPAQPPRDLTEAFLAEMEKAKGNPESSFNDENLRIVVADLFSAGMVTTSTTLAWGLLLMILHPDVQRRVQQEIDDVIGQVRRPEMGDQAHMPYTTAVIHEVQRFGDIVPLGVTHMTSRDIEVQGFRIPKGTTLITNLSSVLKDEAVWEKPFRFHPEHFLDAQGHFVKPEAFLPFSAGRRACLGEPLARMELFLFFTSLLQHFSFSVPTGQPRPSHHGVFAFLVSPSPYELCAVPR
Chain of Cytochrome P450 2C9 (P11712 whole entry): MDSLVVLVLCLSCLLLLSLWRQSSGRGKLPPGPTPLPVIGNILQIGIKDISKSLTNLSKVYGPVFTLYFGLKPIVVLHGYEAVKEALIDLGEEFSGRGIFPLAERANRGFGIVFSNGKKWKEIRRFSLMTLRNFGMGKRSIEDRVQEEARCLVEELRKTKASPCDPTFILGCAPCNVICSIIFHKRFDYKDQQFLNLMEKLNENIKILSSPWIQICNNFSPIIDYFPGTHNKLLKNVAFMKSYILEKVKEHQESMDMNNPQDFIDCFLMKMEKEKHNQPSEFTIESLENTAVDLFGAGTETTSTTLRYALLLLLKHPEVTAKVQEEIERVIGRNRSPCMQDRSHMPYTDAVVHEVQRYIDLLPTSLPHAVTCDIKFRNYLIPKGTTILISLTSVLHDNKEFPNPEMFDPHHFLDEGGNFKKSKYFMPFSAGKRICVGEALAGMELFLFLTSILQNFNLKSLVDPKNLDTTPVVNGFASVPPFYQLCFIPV
Chain of Cytochrome P450 2C19 (P33261 whole entry): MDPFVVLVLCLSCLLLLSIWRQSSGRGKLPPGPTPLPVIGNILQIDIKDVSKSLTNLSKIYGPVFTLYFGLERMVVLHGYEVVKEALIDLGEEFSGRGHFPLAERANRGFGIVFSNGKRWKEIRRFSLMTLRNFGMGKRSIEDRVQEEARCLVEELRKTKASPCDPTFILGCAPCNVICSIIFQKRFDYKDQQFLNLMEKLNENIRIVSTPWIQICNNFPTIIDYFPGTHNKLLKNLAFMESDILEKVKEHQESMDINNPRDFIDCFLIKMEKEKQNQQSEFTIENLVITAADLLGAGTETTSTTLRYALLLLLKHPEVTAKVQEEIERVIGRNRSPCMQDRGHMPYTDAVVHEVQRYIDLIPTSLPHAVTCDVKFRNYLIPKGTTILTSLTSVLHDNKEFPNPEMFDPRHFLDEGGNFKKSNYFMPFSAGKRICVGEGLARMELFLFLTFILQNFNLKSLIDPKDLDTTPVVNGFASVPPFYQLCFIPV
T1 sequence (P08684 whole entry): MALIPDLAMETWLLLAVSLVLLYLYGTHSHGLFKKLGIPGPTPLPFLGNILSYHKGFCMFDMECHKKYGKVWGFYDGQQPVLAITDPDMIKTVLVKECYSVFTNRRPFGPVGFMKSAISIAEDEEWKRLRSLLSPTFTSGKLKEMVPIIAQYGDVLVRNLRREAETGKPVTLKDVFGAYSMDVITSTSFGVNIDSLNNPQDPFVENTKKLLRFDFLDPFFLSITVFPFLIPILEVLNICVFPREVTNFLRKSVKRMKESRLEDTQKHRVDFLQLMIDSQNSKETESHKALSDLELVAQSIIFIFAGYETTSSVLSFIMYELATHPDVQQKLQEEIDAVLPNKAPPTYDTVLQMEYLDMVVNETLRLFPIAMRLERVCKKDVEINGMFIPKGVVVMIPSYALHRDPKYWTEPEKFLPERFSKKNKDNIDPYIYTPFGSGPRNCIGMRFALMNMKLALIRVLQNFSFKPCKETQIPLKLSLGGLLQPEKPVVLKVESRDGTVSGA

Compound: Fc1cc(OC(F)(F)C(F)F)cc([C@@](Cc2ccccc2)(Nc2nc3c(F)cc(F)cc3[nH]2)c2ccc(Cl)cn2)c1
remaining at 10 min [1]: 100%
remaining at 10 min [2]: 72%
remaining at 10 min [3]: 68%
IC50 [12]: 0.04 µM
IC50 [13]: 6.4 µM
IC50 [4]: 24 µM
IC50 [5]: 19 µM
IC50 [6]: 40 µM
IC50 [7]: 3 µM
IC50 [8]: 15 µM
IC50 [9]: 40 µM
EC60 [10]: > 5.6 µM
Emax [11]: 25%

Compound: Fc1cc(OC(F)(F)C(F)F)cc([C@@](Cc2ccccc2)(Nc2nc3cc(F)ccc3[nH]2)c2ccc(Cl)cn2)c1
remaining at 10 min [1]: 95%
remaining at 10 min [2]: 62%
remaining at 10 min [3]: 56%
IC50 [12]: 0.05 µM
IC50 [13]: 9.5 µM
IC50 [4]: 32 µM
IC50 [5]: 40 µM
IC50 [6]: 29 µM
IC50 [7]: 2 µM
IC50 [8]: 40 µM
IC50 [9]: 40 µM
EC60 [10]: > 17 µM
Emax [11]: 56%

Compound: Fc1cc(OC(F)(F)C(F)F)cc([C@@](Cc2ccccc2)(Nc2nc3ccccc3[nH]2)c2ccc(Cl)cn2)c1
IC50 [12]: 0.09 µM
IC50 [13]: 15 µM
IC50 [4]: 40 µM
IC50 [5]: 13 µM
IC50 [6]: 40 µM
IC50 [7]: 3 µM
IC50 [8]: 19 µM
IC50 [9]: 40 µM
EC60 [10]: > 17 µM
Emax [11]: 70%

Compound: Cc1sc(N[C@](Cc2ccccc2)(c2cc(F)cc(OC(F)(F)C(F)F)c2)c2ccc(Cl)cn2)nc1C(F)(F)F
remaining at 10 min [1]: 55%
remaining at 10 min [2]: 59%
remaining at 10 min [3]: 82%
IC50 [12]: 0.02 µM
IC50 [13]: 3.2 µM
IC50 [4]: > 40 µM
IC50 [5]: > 40 µM
IC50 [6]: > 40 µM
IC50 [7]: > 40 µM
IC50 [8]: > 40 µM
IC50 [9]: > 40 µM
EC60 [10]: > 5.6 µM
Emax [11]: 44%

Compound: Fc1cc(OC(F)(F)C(F)F)cc([C@@](Cc2ccccc2)(Nc2nc(C(F)(F)F)cs2)c2ccc(Cl)cn2)c1
remaining at 10 min [1]: 83%
remaining at 10 min [2]: 78%
remaining at 10 min [3]: 98%
IC50 [12]: 0.22 µM
IC50 [13]: 14.8 µM
IC50 [4]: 40 µM
IC50 [5]: 40 µM
IC50 [6]: 40 µM
IC50 [7]: 13 µM
IC50 [8]: 40 µM
IC50 [9]: 40 µM
EC60 [10]: > 17 µM
Emax [11]: 45%

Compound: Fc1cc(OC(F)(F)C(F)F)cc([C@@](Cc2ccccc2)(Nc2nc3c(s2)CCCC3)c2ccc(Cl)cn2)c1
IC50 [12]: 0.02 µM
IC50 [13]: 4.2 µM

Compound: Fc1cc(OC(F)(F)C(F)F)cc([C@@](Cc2ccccc2)(Nc2nc(C(F)(F)F)c(Br)s2)c2ccc(Cl)cn2)c1
remaining at 10 min [1]: 95%
remaining at 10 min [2]: 100%
remaining at 10 min [3]: 100%
IC50 [12]: 0.04 µM
IC50 [13]: 6.5 µM
IC50 [4]: > 40 µM
IC50 [5]: > 40 µM
IC50 [6]: > 40 µM
IC50 [7]: > 40 µM
IC50 [8]: > 40 µM
IC50 [9]: > 40 µM
EC60 [10]: > 5.6 µM
Emax [11]: 37%

Compound: Cc1nc(N[C@](Cc2ccccc2)(c2cc(F)cc(OC(F)(F)C(F)F)c2)c2ccc(Cl)cn2)sc1C
IC50 [12]: 0.04 µM
IC50 [13]: 5.5 µM

Compound: Cc1nc(N[C@@](Cc2ccccc2)(c2cc(F)cc(C(F)(F)F)c2)c2ccc(Cl)cn2)sc1C
IC50 [12]: 12.2 µM

Compound: CC(C)(C)c1csc(NC(Cc2ccccc2)(c2cc(F)cc(C(F)(F)F)c2)c2ccc(Cl)cn2)n1 (configuration not stated)
IC50 [12]: 7.5 µM

Compound: CCc1csc(NC(Cc2ccccc2)(c2cc(F)cc(C(F)(F)F)c2)c2ccc(Cl)cn2)n1 (configuration not stated)
IC50 [12]: 0.7 µM

Compound: Cc1cnc(NC(Cc2ccccc2)(c2cc(F)cc(C(F)(F)F)c2)c2ccc(Cl)cn2)s1 (configuration not stated)
IC50 [12]: 1.1 µM

Compound: Fc1cc(C(F)(F)F)cc(C(Cc2ccccc2)(Nc2nc3ccccc3o2)c2ccc(Cl)cn2)c1 (configuration not stated)
IC50 [12]: 2 µM

Compound: Fc1cc(C(F)(F)F)cc(C(Cc2ccccc2)(Nc2nc3c(s2)CCCC3)c2ccc(Cl)cn2)c1 (racemic)
IC50 [12]: 0.2 µM
IC50 [13]: 20.2 µM

Compound: Cc1nc(NC(Cc2ccccc2)(c2cc(F)cc(C(F)(F)F)c2)c2ccc(Cl)cn2)sc1C (racemic)
IC50 [12]: 0.4 µM
IC50 [13]: 29.5 µM

Next, values leading:

remaining at 10 min [1]: 12%
remaining at 10 min [2]: 4%
remaining at 10 min [3]: 10%
IC50 [4]: 8.8 µM
IC50 [5]: 3.6 µM
IC50 [6]: 15 µM
IC50 [7]: 17 µM
IC50 [8]: 4.4 µM
IC50 [9]: 40 µM
EC60 [10]: 0.7 µM
Emax [11]: 88%
Compound: O=C(NC1CCCC1)N[C@@](Cc1ccccc1)(c1cc(F)cc(OC(F)(F)C(F)F)c1)c1ccc(Cl)cn1

IC50 [12]: 10.8 µM
Compound: Fc1cc(C(F)(F)F)cc([C@](Cc2ccccc2)(Nc2nc3c(s2)CCCC3)c2ccc(Cl)cn2)c1

IC50 [12]: 0.04 µM
IC50 [13]: 17.3 µM
Compound: Cc1nc(N[C@](Cc2ccccc2)(c2cc(F)cc(C(F)(F)F)c2)c2ccc(Cl)cn2)sc1C

IC50 [12]: 32 µM
Compound: COC(=O)c1sc(NC(Cc2ccccc2)(c2cc(F)cc(C(F)(F)F)c2)c2ccc(Cl)cn2)nc1C (configuration not stated)

IC50 [12]: 0.1 µM
Compound: Fc1cc(C(F)(F)F)cc(C(Cc2ccccc2)(Nc2nc(C(F)(F)F)c(Br)s2)c2ccc(Cl)cn2)c1 (configuration not stated)

IC50 [12]: 1.2 µM
Compound: Fc1cc(C(F)(F)F)cc(C(Cc2ccccc2)(Nc2nc(C(F)(F)F)cs2)c2ccc(Cl)cn2)c1 (configuration not stated)

IC50 [12]: 11 µM
Compound: Cn1nnc(NC(Cc2ccccc2)(c2cc(F)cc(C(F)(F)F)c2)c2ccc(Cl)cn2)n1 (configuration not stated)

IC50 [12]: 0.5 µM
IC50 [13]: 23 µM
Compound: Fc1cc(C(F)(F)F)cc(C(Cc2ccccc2)(Nc2nc3ccccc3s2)c2ccc(Cl)cn2)c1 (configuration not stated)

IC50 [12]: 0.2 µM
IC50 [13]: 19.6 µM
Compound: Fc1cc(C(F)(F)F)cc(C(Cc2ccccc2)(Nc2nc3ccccc3[nH]2)c2ccc(Cl)cn2)c1 (configuration not stated)

IC50 [12]: > 32 µM
Compound: Fc1cc(C(F)(F)F)cc(C(Cc2ccccc2)(Nc2nnc(-c3ccccc3)[nH]2)c2ccc(Cl)cn2)c1 (configuration not stated)

IC50 [12]: 12 µM
Compound: Fc1cc(C(F)(F)F)cc(C(Cc2ccccc2)(Nc2ncc(-c3ccccc3)o2)c2ccc(Cl)cn2)c1 (configuration not stated)
